Experimental data from PMC8584173, “The Cytotoxic Effect of Copper (II) Complexes with Halogenated 1,3-Disubstituted Arylthioureas on Cancer and Bacterial Cells” (International Journal of Molecular Sciences, 2021).

Tests used:
[1] = system: Glutathione S-transferase omega-1 (GSTO1_HUMAN); test: LC–MS proteome analysis, GSTO1; assay type: cell-based, Homo sapiens; conditions: IC50 concentration, % of control
Description: Enzymes involved in oxidoreductive potential were analyzed in the cell lysates obtained after treatment cells with selected conjugates for 24 h. Cells were washed with phosphate-buffered saline (PBS) and harvested, then centrifuged at 1000× g for 10 min. Then, lysis buffer (containing protease inhibitor, 1% RIPA Lysis and Extraction Buffer (ThermoFisher)) and cold PBS were added, and samples were sonicated three times in ice bath. Next, the cell lysates were centrifuged at 14,000× g at 4 °C for 15 min, and then supernatants were stored at […] before use. Protein concentration was measured by the Bradford method.
Normalized protein concentrations (5 µg) from cell lysate were precipitated by ice cold (–20 °C) acetonitrile (ACN, Merck, in ratio 1:4). Then, samples were centrifuged (–9 °C, 30 min., 18,000× g), the supernatant was discarded and ACN excess was evaporated using a vacuum centrifuge (5 min., room temp.). Protein pellet was dissolved in 40 mM ammonium bicarbonate. An amount of 500 mM dithiothreitol (DTT, with final concentration 20 mM) and 1 M iodoacetamide (IAA, with final concentration 40 mM) were used for reduction and alkylation processes. After 16 h of incubation in 37 °C with Trypsin Gold (Promega), digested protein samples were diluted with 0.1% formic acid (ThermoFisher) and centrifuged (+2 °C, 30 min, 18,000× g).
LC–MS analysis was carried out with the use of nanoUHPLC (nanoElute, Bruker) coupled by CaptiveSpray (Bruker) to ESI-Q-TOF mass spectrometer (Compact, Bruker). Two-column separation method was used, i.e., pre-column (300 µm × 5 mm, C18 PepMap 100, 5 µm, 100Å, Thermo Scientific) and Aurora separation column with CSI fitting (75 µm × 250 mm, C18 1.6 µm) in gradient 2% B to 35% B in 90 min with the 300 nL/min flow rate. Mobile phases (A) 0.1% formic acid in water and (B) 0.1% formic acid in ACN were used.
Sample ionizations were performed at a gas flow of 3.0 L/min, temperature of 150 °C and voltage of the capillary at 1600 V. The quadrupole energy was fixed to 5.0 eV and collision chamber energy 7.0 eV, with an ion transfer time of 90 µs. The ions were analyzed in the positive polarity mode in the range 150–2200 m/z, with the acquisition frequency of the 1 Hz spectrum, as well as with the autoMS/MS system.
The collected spectra were analyzed and calibrated using DataAnalysis software (Bruker) and then identified in ProteinScape (Bruker) by the MASCOT server. Protein identification was conducted using the online SwissProt and NCBIprot databases, and their references and biological significance were identified using Reactome.org, String.org and KEGG.

SW620 cells = test: LDH release assay, SW620; assay type: cell-based, human; conditions: 72 h
Description: The presence of lactate dehydrogenase (LDH) in culture medium indicates a disturbance of the integrity of the cellular membrane. The LDH activity was performed after 72 h incubation of cells (1 × 10^4 cells per well) in 96-well plates with selected compounds according to manufacturer’s protocol (Roche Diagnostics, Germany), as was described by Chrzanowska et al.. Compound mediated cytotoxicity was determined using equation: ((A test sample−A low control)/ (A high control−A low control)) × 100% (A-absorbance), where “low control” means cells in medium with 2% FBS without tested compounds, and “high control” means cells incubated in medium with 2% FBS and 1% Triton X-100 (100% LDH release). The cytotoxicity was expressed as percentage of LDH release as compared with the maximum release of LDH from Triton-X-100-treated cells.

Candida species = test: MIC, Candida species; assay type: cell-based; conditions: studied Candida species
Description: The antimicrobial activity of the compounds was tested on Gram-positive bacteria (Staphylococcus aureus NCTC 4163, Staphylococcus aureus ATCC 25923, Staphylococcus aureus ATCC 6538, Staphylococcus aureus ATCC 29213, Staphylococcus epidermidis ATCC 12228, Staphylococcus epidermidis ATCC 35984), Gram-negative rods (Escherichia coli ATCC 10538, Escherichia coli ATCC 25922, Pseudomonas aeruginosa ATCC 15442, Pseudomonas aeruginosa ATCC 27863) and yeasts (Candida albicans ATCC 10231, Candida albicans ATCC 90028, Candida parapsilosis ATCC 22019). Hospital methicillin-resistant strains of Staphylococcus aureus and Staphylococcus epidermidis were obtained from the collection of the Department of Pharmaceutical Microbiology, Medical University of Warsaw, Poland.
Antifungal activities were assessed using Mueller–Hinton agar + 2% glucose and 0.5 µg/mL methylene blue dye medium. Sterile filter paper discs (9 mm diameter, Whatman Number 3 chromatography paper) were dripped with tested compound solutions (in dimethylsulfoxide, DMSO) to load 400 μg of a given compound per disc. Dry discs were placed on the surface of appropriate agar medium. The results (diameter of the growth inhibition zone) were read after 18 h of incubation at 35 °C. Minimal inhibitory concentration (MIC) was tested by the twofold serial microdilution method (in 96-well microtiter plates) using Mueller–Hinton broth medium (Beckton Dickinson) for bacteria or RPMI-1640 medium for Candida species, according to CLSI guidelines. The stock solution of tested agent was prepared in DMSO and diluted in sterile water. […] The final inoculum of all studied microorganisms was 10^5 CFU/ mL^−1 (colony forming units per ml). Minimal inhibitory concentrations (the lowest concentration of a tested agent that prevents visible growth of a microorganism) were read after 18 h (bacteria) or 24 h (yeasts) of incubation at 35 °C.

[2] = system: SW480, SW620, PC3 cancer cells; test: MTT cytotoxicity assay, all cancer cell lines; assay type: cell-based, human; conditions: span or bound over SW480, SW620, PC3; 72 h; read-out: IC50 over the tested cancer cell lines
Description: The human primary (SW480), metastatic (SW620) colon cancer, metastatic prostate cancer (PC3) and human immortal keratinocyte (HaCaT) cell lines were purchased from the American Type Culture Collection (ATCC, Rockville, USA). The cells were cultured in medium according to protocols (MEM for SW480 and SW620, RPMI 1640 for PC3 and DMEM for HaCaT cells) supplemented with 10% fetal bovine serum (FBS), penicillin (100 U/mL) and streptomycin (100 μg/mL) and cultured in 37 °C/ 5% CO2 humidified incubator. The cells were cultured until appropriate confluence was achieved (80–90%). Next, they were harvested by treatment with 0.25% trypsin (Gibco Life Technologies, USA) and used for studies.
Cells without studied compounds in medium were used as a control.
The cell viability was assessed by determination of MTT salt (3-(4,5-dimethylthiazol-2-yl)-2,5-diphenyltetrazolium bromide) conversion by mitochondrial dehydrogenase. MTT assay was performed as previously described. Experiments were repeated three times. Cell viability was presented as a percentage of MTT reduction in the treated cells versus the control cells. Number of viable cells cultured without studied compounds was assumed to be 100%. Decreased relative MTT level means decreased cell viability. Thiourea complexes with the highest cytotoxic potential assessed by MTT determination (with the lowest IC50) were chosen for subsequent assessments of cytotoxicity mechanisms.

Row | Compound | Protein Intensity, % (GSTO1) ([1]; PC3, 24 h) [%] | Protein Intensity, % (GSTO1) ([1]; SW480, 24 h) [%] | Protein Intensity, % (GSTO1) ([1]; SW620, 24 h) [%] | LDH release (SW620 cells; SW620, 10 μM) [%] | LDH release (SW620 cells; SW620, 60 μM) [%] | growth inhibitory dose (Candida species) [µg/mL] | IC50 [2] [µM]
1 | O=[N+]([O-])c1cc([N+]2=C(Nc3ccccc3Br)[S][Cu-2]23[S]C(Nc2ccccc2Br)=[N+]3c2ccc(Cl)c([N+](=O)[O-])c2)ccc1Cl [Compound 1, Copper (II) complex with 1-(2-bromophenyl)-3-(4-chloro-3-nitrophenyl)thiourea] | 65.0 | 70.9 | 85.5 | 22 | 48 |  | 
2 | O=[N+]([O-])c1cc([N+]2=C(Nc3cccc(Br)c3)[S][Cu-2]23[S]C(Nc2cccc(Br)c2)=[N+]3c2ccc(Cl)c([N+](=O)[O-])c2)ccc1Cl [Compound 2, Copper (II) complex with 1-(3-bromophenyl)-3-(4-chloro-3-nitrophenyl)thiourea] |  |  |  |  |  | 64 | 
3 | O=[N+]([O-])c1cc([N+]2=C(Nc3ccc(Br)cc3)[S][Cu-2]23[S]C(Nc2ccc(Br)cc2)=[N+]3c2ccc(Cl)c([N+](=O)[O-])c2)ccc1Cl [Compound 3, Copper (II) complex with 1-(4-bromophenyl)-3-(4-chloro-3-nitrophenyl)thiourea] | 64.0 | 66.0 | 77.0 |  |  | 64 | ≤ 10
4 | O=[N+]([O-])c1cc([N+]2=C(Nc3ccc(Cl)c(Cl)c3)[S][Cu-2]23[S]C(Nc2ccc(Cl)c(Cl)c2)=[N+]3c2ccc(Cl)c([N+](=O)[O-])c2)ccc1Cl [Compound 5, Copper (II) complex with 1-(4-chloro-3-nitrophenyl)-3-(3,4-dichlorophenyl)thiourea] |  |  |  |  |  |  | ≤ 10
5 | O=[N+]([O-])c1cc(NC2=[N+](c3ccc(Cl)c([N+](=O)[O-])c3)[Cu-2]3([S]2)[S]C(Nc2ccc(Cl)c([N+](=O)[O-])c2)=[N+]3c2ccc(Cl)c([N+](=O)[O-])c2)ccc1Cl [Compound 6, Copper (II) complex with 1,3-bis(4-chloro-3-nitrophenyl)thiourea] |  |  |  |  |  | 64 | ≥ 20.3
6 | O=[N+]([O-])c1cc([N+]2=C(Nc3ccccc3F)[S][Cu-2]23[S]C(Nc2ccccc2F)=[N+]3c2ccc(Cl)c([N+](=O)[O-])c2)ccc1Cl [Compound 7, Copper (II) complex with 1-(2-fluorophenyl)-3-(4-chloro-3-nitrophenyl)thiourea] | 68.6 | 45.1 | 52.5 |  | 30.2 |  | ≤ 10
7 | O=[N+]([O-])c1cc([N+]2=C(Nc3ccc(I)cc3)[S][Cu-2]23[S]C(Nc2ccc(I)cc2)=[N+]3c2ccc(Cl)c([N+](=O)[O-])c2)ccc1Cl [Compound 8, Copper (II) complex with 1-(4-iodophenyl)-3-(4-chloro-3-nitrophenyl)thiourea] | 31.6 | 52.4 | 65.0 | 23 | 42.4 | 64 | 
